This experiment concerns Escherichia coli W3110. The experiment is classed as cell-based. Conditions: for Ec W3110 MIC MH: E. coli W3110, MH medium; for Ec W3110 MIC RPMI: E. coli W3110, RPMI medium.

Twelve compounds from PMC9833666, “Designing and identifying β-hairpin peptide macrocycles with antibiotic potential” (Science Advances, 2023) can be followed below.

Read-outs that look alike come from different tables or passages of the source. Bridge positions count the residues as written; N and C are the ends. Peptide text beside a SMILES is read from it.

Procedure: MICs were performed by a modifiedClinical and Laboratory Standards Institute) procedure. […] Separately, E. coli W3110 or A. baumannii AB5075 was grown overnight in 5 ml of standard MH at 37°C. Cells from these cultures were diluted to a concentration of 5 × 10^5 to 6 × 10^5 cells/ml in either standard MH, MHII, RPMI, or fetal bovine serum, and 90 μl was added to each well of the 96-well plate containing diluted peptide. Plates were wrapped twice in parafilm and incubated at 37°C for 18 to 24 hours. Wells were examined by eye against wells with no bacteria for signs of growth. MICs were reported as the minimum concentration with no observable growth. In cases where triplicate samples differed, the concentration supported by the median of the three replicates was reported.

For the compound `CC[C@H](C)[C@@H]1NC(=O)[C@H](CCCNC(=N)N)NC(=O)[C@H](C(C)C)NC(=O)[C@@H](N)CSSC[C@@H](C(=O)O)NC(=O)[C@H](C(C)C)NC(=O)[C@H](CCC(N)=O)NC(=O)[C@H](C(C)C)NC(=O)[C@H](CO)NC(=O)[C@H](C(C)C)NC(=O)[C@H](CCCCN)NC(=O)[C@H](C(C)C)NC(=O)CNC(=O)[C@H](CCCNC(=N)N)NC(=O)[C@H](CCCNC(=N)N)NC(=O)[C@H](CCCNC(=N)N)NC(=O)[C@H](CC(N)=O)NC(=O)[C@H](CC(N)=O)NC(=O)[C@H](CC(C)C)NC(=O)[C@H](CCCNC(=N)N)NC1=O` [SySA-66] (H-CVRIRLNNRRRGVKVSVQVC-OH; disulfide 1-20), where the note is “W3110”, the “W3110 MIC MH” value came out at 128 µg/mL and the “W3110 MIC RPMI” value came out at 32 µg/mL.
With `CC[C@H](C)[C@@H]1NC(=O)[C@H](CCCNC(=N)N)NC(=O)[C@@H](N)CSSC[C@@H](C(=O)O)NC(=O)[C@H](CCC(N)=O)NC(=O)[C@H](C(C)C)NC(=O)[C@H](CCC(=O)O)NC(=O)[C@H](CC(C)C)NC(=O)[C@H](CCCNC(=N)N)NC(=O)[C@H](CC(C)C)NC(=O)[C@H](CCCNC(=N)N)NC(=O)[C@H](CCCNC(=N)N)NC(=O)CNC(=O)[C@H](CCCNC(=N)N)NC(=O)[C@H](CC(N)=O)NC(=O)[C@H](CC(N)=O)NC(=O)[C@H](C(C)C)NC(=O)[C@H](CC(N)=O)NC(=O)[C@H](C(C)C)NC(=O)[C@H](CCCCN)NC1=O` [SySA-4] (H-CRIKVNVNNRGRRLRLEVQC-OH; disulfide 1-20; N-terminus and C-terminus assumed), the Ec W3110 MIC MH was determined as 256 µg/mL and the Ec W3110 MIC RPMI worked out at 128 µg/mL. The “W3110 MIC RPMI” value (W3110) amounted to 128 µg/mL.
`CC[C@H](C)[C@@H]1NC(=O)[C@H](CCCNC(=N)N)NC(=O)[C@H](C(C)C)NC(=O)CNC(=O)[C@H](CO)NC(=O)[C@H](CCCNC(=N)N)NC(=O)CNC(=O)[C@H](CC(N)=O)NC(=O)[C@H](CC(=O)O)NC(=O)[C@H](CC(C)C)NC(=O)[C@H](CCCNC(=N)N)NC(=O)[C@H](C(C)C)NC(=O)[C@H]([C@@H](C)O)NC(=O)[C@H](C(C)C)NC(=O)[C@@H](N)CSSC[C@@H](C(=O)O)NC(=O)[C@H](C(C)C)NC(=O)[C@H](CCC(N)=O)NC(=O)[C@H](C(C)C)NC(=O)[C@H](CO)NC1=O` [SyRA-13] (H-CVTVRLDNGRSGVRISVQVC-OH; disulfide 1-20): the “W3110 MIC” value (W3110) was over 256 µg/mL.
As for `CC[C@H](C)[C@@H]1NC(=O)[C@H](CCCNC(=N)N)NC(=O)[C@H](CC(C)C)NC(=O)CNC(=O)[C@H](CCCNC(=N)N)NC(=O)[C@H](CCCNC(=N)N)NC(=O)[C@H](CCCNC(=N)N)NC(=O)[C@H](CC(N)=O)NC(=O)[C@H](CC(N)=O)NC(=O)[C@H](CC(C)C)NC(=O)[C@H](CCCNC(=N)N)NC(=O)[C@H](C(C)C)NC(=O)[C@H](CCCNC(=N)N)NC(=O)[C@H](CC(C)C)NC(=O)[C@@H](N)CSSC[C@@H](C(=O)O)NC(=O)[C@H](C(C)C)NC(=O)[C@H](CCC(N)=O)NC(=O)[C@H](CC(C)C)NC(=O)[C@H](CO)NC1=O` [SySA-73] (H-CLRVRLNNRRRGLRISLQVC-OH; disulfide 1-20; N-terminus and C-terminus assumed), the Ec W3110 MIC MH amounted to 32 µg/mL and the Ec W3110 MIC RPMI is 8 µg/mL. In addition, where the note is “W3110”, the “W3110 MIC MH” value turned out to be 32 µg/mL and the “W3110 MIC RPMI” value came to 8 µg/mL.
As to `CC[C@H](C)[C@@H]1NC(=O)[C@H](CCCNC(=N)N)NC(=O)[C@H](C(C)C)NC(=O)[C@H](CCCNC(=N)N)NC(=O)[C@@H](N)CSSC[C@@H](C(=O)O)NC(=O)[C@H](CCC(=O)O)NC(=O)[C@H](C(C)C)NC(=O)[C@H](CCC(N)=O)NC(=O)[C@H](CC(C)C)NC(=O)[C@H](CCCCN)NC(=O)[C@H](CC(C)C)NC(=O)[C@H](CCCNC(=N)N)NC(=O)CNC(=O)[C@H](CCCNC(=N)N)NC(=O)[C@H](CCCNC(=N)N)NC(=O)[C@H](CC(=O)O)NC(=O)[C@H](CC(=O)O)NC(=O)[C@H](C(C)C)NC(=O)[C@H](CC(N)=O)NC1=O` [SyRC-1] (H-CRVRINVDDRRGRLKLQVEC-OH; disulfide 1-20), under “W3110”, the “W3110 MIC” value was over 256 µg/mL.
Same read-out and setting: the result for `CC[C@H](C)[C@@H]1NC(=O)[C@H](CCCNC(=N)N)NC(=O)[C@H](C(C)C)NC(=O)[C@H](CCCNC(=N)N)NC(=O)[C@@H](N)CSSC[C@@H](C(=O)O)NC(=O)[C@H](CCC(N)=O)NC(=O)[C@H](C(C)C)NC(=O)[C@H](CCC(N)=O)NC(=O)[C@H](CC(C)C)NC(=O)[C@H](CCCNC(=N)N)NC(=O)[C@H](C(C)C)NC(=O)[C@H]([C@@H](C)O)NC(=O)CNC(=O)[C@H](CO)NC(=O)CNC(=O)[C@H](CC(=O)O)NC(=O)[C@H](CC(N)=O)NC(=O)[C@H](C(C)C)NC(=O)[C@H](CC(N)=O)NC1=O` [SyRC-10] (H-CRVRINVNDGSGTVRLQVQC-OH; disulfide 1-20) reads over 256 µg/mL.
For the compound `CC[C@H](C)[C@@H]1NC(=O)[C@H](CCCNC(=N)N)NC(=O)[C@H](C(C)C)NC(=O)[C@@H](N)CSSC[C@@H](C(=O)O)NC(=O)[C@H](C(C)C)NC(=O)[C@H](CCC(N)=O)NC(=O)[C@H](CC(C)C)NC(=O)[C@H](CO)NC(=O)[C@H](C(C)C)NC(=O)[C@H](CCCCN)NC(=O)[C@H](CC(C)C)NC(=O)CNC(=O)[C@H](CCCNC(=N)N)NC(=O)[C@H](CCCNC(=N)N)NC(=O)[C@H](CCCNC(=N)N)NC(=O)[C@H](CC(N)=O)NC(=O)[C@H](CC(N)=O)NC(=O)[C@H](CC(C)C)NC(=O)[C@H](CCCNC(=N)N)NC1=O` [SySA-40] (H-CVRIRLNNRRRGLKVSLQVC-OH; disulfide 1-20; N-terminus and C-terminus assumed), the Ec W3110 MIC MH worked out at 32 µg/mL and the Ec W3110 MIC RPMI worked out at 8 µg/mL. Also, where the note is “W3110”, the “W3110 MIC MH” value is 32 µg/mL and the “W3110 MIC RPMI” value worked out at 8 µg/mL.
Regarding `CC[C@H](C)[C@@H]1NC(=O)[C@H](CCCNC(=N)N)NC(=O)[C@H](C(C)C)NC(=O)[C@@H](N)CSSC[C@@H](C(=O)O)NC(=O)[C@H](C(C)C)NC(=O)[C@H](CCC(N)=O)NC(=O)[C@H](C(C)C)NC(=O)[C@H](CO)NC(=O)[C@H](C(C)C)NC(=O)[C@H](CCCCN)NC(=O)[C@H](C(C)C)NC(=O)[C@H](CCCNC(=N)N)NC(=O)[C@H](CCCNC(=N)N)NC(=O)[C@H](CCCNC(=N)N)NC(=O)[C@H](CCCNC(=N)N)NC(=O)[C@H](CC(N)=O)NC(=O)[C@H](CC(N)=O)NC(=O)[C@H](C(C)C)NC(=O)[C@H](CCCNC(=N)N)NC1=O` [SySA-62] (H-CVRIRVNNRRRRVKVSVQVC-OH; disulfide 1-20; N-terminus and C-terminus assumed), the Ec W3110 MIC MH was 32 µg/mL and the Ec W3110 MIC RPMI amounted to 16 µg/mL. Also, under “W3110”, the “W3110 MIC MH” value is 32 µg/mL and the “W3110 MIC RPMI” value is 16 µg/mL.
For the compound `CC[C@H](C)[C@@H]1NC(=O)[C@H](CC(N)=O)NC(=O)[C@H](C(C)C)NC(=O)[C@H](CCCCN)NC(=O)[C@H]([C@@H](C)CC)NC(=O)[C@H](CCCNC(=N)N)NC(=O)[C@@H](N)CSSC[C@@H](C(=O)O)NC(=O)[C@H](CCC(=O)O)NC(=O)[C@H](CC(C)C)NC(=O)[C@H](CCC(=O)O)NC(=O)[C@H](CC(C)C)NC(=O)[C@H](CCCCN)NC(=O)[C@H](C(C)C)NC(=O)[C@H]([C@@H](C)O)NC(=O)[C@H](CCCNC(=N)N)NC(=O)[C@H](CCCNC(=N)N)NC(=O)[C@H](CCCNC(=N)N)NC(=O)[C@H](CC(N)=O)NC(=O)[C@H](CC(N)=O)NC1=O` [SyRC-6] (H-CRIKVNINNRRRTVKLELEC-OH; disulfide 1-20), where the note is “W3110”, the “W3110 MIC” value was over 256 µg/mL.
As for `CC[C@H](C)[C@@H]1NC(=O)[C@H](CCCNC(=N)N)NC(=O)[C@@H](N)CSSC[C@@H](C(=O)O)NC(=O)[C@H](CCC(N)=O)NC(=O)[C@H](C(C)C)NC(=O)[C@H](CCC(N)=O)NC(=O)[C@H](CC(C)C)NC(=O)[C@H](CCCNC(=N)N)NC(=O)[C@H](C(C)C)NC(=O)[C@H](CCCNC(=N)N)NC(=O)[C@H](CCCNC(=N)N)NC(=O)[C@H](CCCNC(=N)N)NC(=O)[C@H](CCCNC(=N)N)NC(=O)[C@H](CC(N)=O)NC(=O)[C@H](CC(N)=O)NC(=O)[C@H](C(C)C)NC(=O)[C@H](CC(=O)O)NC(=O)[C@H](C(C)C)NC(=O)[C@H](CCCCN)NC1=O` [SySA-1] (H-CRIKVDVNNRRRRVRLQVQC-OH; disulfide 1-20; N-terminus and C-terminus assumed), the Ec W3110 MIC MH turned out to be 128 µg/mL and the Ec W3110 MIC RPMI was 64 µg/mL. Moreover, the “W3110 MIC MH” value (E. coli W3110, standard Mueller-Hinton broth, 37°C, 18-24 h, median of n=3) amounted to 128 µg/mL. Also, the “W3110 MIC RPMI” value (W3110) is 64 µg/mL.
The compound `CC[C@H](C)[C@@H]1NC(=O)[C@H](CCCNC(=N)N)NC(=O)[C@H](CC(C)C)NC(=O)[C@@H](N)CSSC[C@@H](C(=O)O)NC(=O)[C@H](C(C)C)NC(=O)[C@H](CCC(N)=O)NC(=O)[C@H](CC(C)C)NC(=O)[C@H](CO)NC(=O)[C@H](C(C)C)NC(=O)[C@H](CCCCN)NC(=O)[C@H](CC(C)C)NC(=O)CNC(=O)[C@H](CCCNC(=N)N)NC(=O)[C@H](CCCNC(=N)N)NC(=O)[C@H](CCCNC(=N)N)NC(=O)[C@H](CC(N)=O)NC(=O)[C@H](CC(N)=O)NC(=O)[C@H](CC(C)C)NC(=O)[C@H](CCCNC(=N)N)NC1=O` [SySA-30] (H-CLRIRLNNRRRGLKVSLQVC-OH; disulfide 1-20; N-terminus and C-terminus assumed) displayed an Ec W3110 MIC MH of 64 µg/mL and an Ec W3110 MIC RPMI of 8 µg/mL. Moreover, under “W3110”, the “W3110 MIC MH” value is 64 µg/mL and the “W3110 MIC RPMI” value was 8 µg/mL.
`CC(C)C[C@@H]1NC(=O)CNC(=O)[C@H](CCCNC(=N)N)NC(=O)[C@H](CCCNC(=N)N)NC(=O)[C@H](CCCNC(=N)N)NC(=O)[C@H](CC(N)=O)NC(=O)[C@H](CC(N)=O)NC(=O)[C@H](CC(C)C)NC(=O)[C@H](CCCNC(=N)N)NC(=O)[C@H](C(C)C)NC(=O)[C@H](CCCNC(=N)N)NC(=O)[C@H](CC(C)C)NC(=O)[C@@H](N)CSSC[C@@H](C(=O)O)NC(=O)[C@H](C(C)C)NC(=O)[C@H](CCC(N)=O)NC(=O)[C@H](C(C)C)NC(=O)[C@H](CO)NC(=O)[C@H](C(C)C)NC(=O)[C@H](CCCCN)NC1=O` [SySA-17] (H-CLRVRLNNRRRGLKVSVQVC-OH; disulfide 1-20; N-terminus and C-terminus assumed) gave an Ec W3110 MIC MH of 64 µg/mL and an Ec W3110 MIC RPMI of 32 µg/mL. Where the note is “W3110”, the “W3110 MIC MH” value was found to be 64 µg/mL and the “W3110 MIC RPMI” value came to 32 µg/mL.
